From PubChem BioAssay AID256 (DTP/NCI, 2004)
Toxic doses and inconclusive results are not listed.

System: CD2F1 mice, L1210 leukemia ip, survival T/C
Test: NCI In Vivo Anticancer Drug Screen. Data for tumor model L1210 Leukemia (intraperitoneal) in CD2F1 (CDF1) mice
Details: higher = longer survival
How it was run: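 Mice carrying a transplanted tumor received test compound or vehicle alone. The value is the measurement in the treated group divided by that in the vehicle-treated control group.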

[1] = endpoint: mean survival time, dose: 25.0 mg/kg/injection, schedule: Q01DX009 (ip), vehicle: saline with Tween-80
[2] = endpoint: mean survival time, dose: 50.0 mg/kg/injection, schedule: Q01DX009 (ip), vehicle: saline with Tween-80
[3] = endpoint: mean survival time, dose: 100.0 mg/kg/injection, schedule: Q01DX009 (ip), vehicle: saline with Tween-80
[4] = endpoint: mean survival time, dose: 200.0 mg/kg/injection, schedule: Q01DX009 (ip), vehicle: saline with Tween-80
[5] = endpoint: mean survival time, dose: 400.0 mg/kg/injection, schedule: Q01DX009 (ip), vehicle: saline with Tween-80
[6] = endpoint: mean survival time, dose: 12.5 mg/kg/injection, schedule: Q01DX005 (ip), vehicle: distilled water + Tween-80
[7] = endpoint: mean survival time, dose: 25.0 mg/kg/injection, schedule: Q01DX005 (ip), vehicle: distilled water + Tween-80
[8] = endpoint: mean survival time, dose: 50.0 mg/kg/injection, schedule: Q01DX005 (ip), vehicle: distilled water + Tween-80
[9] = endpoint: mean survival time, dose: 200.0 mg/kg/injection, schedule: Q01DX005 (ip), vehicle: distilled water + Tween-80
[10] = endpoint: mean survival time, dose: 100.0 mg/kg/injection, schedule: Q01DX001 (ip), vehicle: saline with Tween-80
[11] = endpoint: mean survival time, dose: 200.0 mg/kg/injection, schedule: Q01DX001 (ip), vehicle: saline with Tween-80
[12] = endpoint: mean survival time, dose: 400.0 mg/kg/injection, schedule: Q01DX001 (ip), vehicle: saline with Tween-80
[13] = endpoint: mean survival time, dose: 100.0 mg/kg/injection, schedule: Q04DX002 (ip), vehicle: saline with Tween-80
[14] = endpoint: mean survival time, dose: 400.0 mg/kg/injection, schedule: Q04DX002 (ip), vehicle: saline with Tween-80
[15] = endpoint: mean survival time, dose: 100.0 mg/kg/injection, schedule: Q01DX001 (ip), vehicle: Klucel (hydroxypropylcellulose) (HPC)
[16] = endpoint: mean survival time, dose: 200.0 mg/kg/injection, schedule: Q01DX001 (ip), vehicle: Klucel (hydroxypropylcellulose) (HPC)
[17] = endpoint: mean survival time, dose: 400.0 mg/kg/injection, schedule: Q01DX001 (ip), vehicle: Klucel (hydroxypropylcellulose) (HPC)

`N#Cc1nn(C2OC(COC(=O)c3ccccc3)C(OC(=O)c3ccccc3)C2OC(=O)c2ccccc2)c2nc[nH]c(=O)c12` (configuration not stated) was tested, and the T/C (endpoint: median survival time, dose: 12.5 mg/kg/injection, schedule: Q01DX005 (ip), vehicle: saline with Tween-80) was 107 % of control, the T/C (endpoint: median survival time, dose: 25.0 mg/kg/injection, schedule: Q01DX005 (ip), vehicle: saline with Tween-80) was 103 % of control and the T/C (endpoint: median survival time, dose: 50.0 mg/kg/injection, schedule: Q01DX005 (ip), vehicle: saline with Tween-80) was 97 % of control. For the same compound, the T/C (endpoint: median survival time, dose: 100.0 mg/kg/injection, schedule: Q01DX005 (ip), vehicle: saline with Tween-80) was 97 % of control and the T/C (endpoint: median survival time, dose: 200.0 mg/kg/injection, schedule: Q01DX005 (ip), vehicle: saline with Tween-80) was 119 % of control.

For `CC(=O)Nc1cc2c3c(c1)CCN3CCC2`, the T/C (endpoint: mean survival time, dose: 3.13 mg/kg/injection, schedule: Q01DX001 (ip), vehicle: saline) was 100 % of control, the T/C (endpoint: mean survival time, dose: 6.25 mg/kg/injection, schedule: Q01DX001 (ip), vehicle: saline) was 113 % of control and the T/C (endpoint: mean survival time, dose: 12.5 mg/kg/injection, schedule: Q01DX001 (ip), vehicle: saline) was 112 % of control.

For `O=C(O)/C(Cl)=C(/Cl)C(Cl)=C(Cl)Cl`, the T/C [1] was 96 % of control, the T/C (endpoint: mean survival time, dose: 25.0 mg/kg/injection, schedule: Q04DX003 (ip), vehicle: saline with Tween-80) was 100 % of control and the T/C [2] was 95 % of control. For the same compound, the T/C (endpoint: mean survival time, dose: 50.0 mg/kg/injection, schedule: Q04DX003 (ip), vehicle: saline with Tween-80) was 98 % of control, the T/C [3] was 93 % of control and the T/C (endpoint: mean survival time, dose: 100.0 mg/kg/injection, schedule: Q04DX003 (ip), vehicle: saline with Tween-80) was 91 % of control.

In the case of `Nc1nc(N)c(N=Nc2ccc(S(=O)(=O)c3ccc(N=Nc4c(N)nc(N)[nH]c4=O)cc3)cc2)c(=O)[nH]1`, the T/C [3] is reported as 102 % of control, the T/C [4] is reported as 92 % of control and the T/C [5] is reported as 92 % of control.

For `O.O.O.O.[Fe].[Fe].[Fe].[NH-]c1c(C(=O)O)ncn1C1[OH+]C(CO)C(O)C1O.[NH-]c1c(C(=O)O)ncn1C1[OH+]C(CO)C(O)C1O` (configuration not stated), the T/C [6] was 94 % of control, the T/C [7] was 97 % of control and the T/C [8] was 103 % of control. The T/C [9] was 88 % of control.

In the case of `Nc1nc(/C=C/c2ccc([N+](=O)[O-])cc2)c(-c2ccc(Cl)c(Cl)c2)c(=O)[nH]1`, the T/C [10] is reported as 92 % of control, the T/C [11] is reported as 89 % of control and the T/C [12] is reported as 90 % of control.

In the case of `Nc1ncnc2c1c(C(=O)NO)cn2C1OC(CO)C(O)C1O` (configuration not stated), the T/C (endpoint: mean survival time, dose: 50.0 mg/kg/injection, schedule: Q01DX001 (ip), vehicle: water) is reported as 170 % of control.

In the case of `c1cncc(-c2nnc(-c3cccnc3)o2)c1`, the T/C (endpoint: mean survival time, dose: 1.56 mg/kg/injection, schedule: Q04DX002 (ip), vehicle: saline with Tween-80) is reported as 101 % of control, the T/C (endpoint: mean survival time, dose: 3.13 mg/kg/injection, schedule: Q04DX002 (ip), vehicle: saline with Tween-80) is reported as 104 % of control and the T/C (endpoint: mean survival time, dose: 6.25 mg/kg/injection, schedule: Q04DX002 (ip), vehicle: saline with Tween-80) is reported as 104 % of control. For the same compound, the T/C (endpoint: mean survival time, dose: 12.5 mg/kg/injection, schedule: Q04DX002 (ip), vehicle: saline with Tween-80) was 104 % of control, the T/C [13] was 87 % of control and the T/C (endpoint: mean survival time, dose: 200.0 mg/kg/injection, schedule: Q04DX002 (ip), vehicle: saline with Tween-80) was 87 % of control.

In the case of `Cc1ccc(NC(=O)OCCOc2ccc([N+](=O)[O-])cc2)cc1C`, the T/C [2] is reported as 108 % of control, the T/C [3] is reported as 92 % of control and the T/C [4] is reported as 92 % of control.

With `CCCCS/C=C\C(=O)OCC` the T/C [13] was 102 % of control and the T/C [14] was 102 % of control.

For `CC(=O)C1=C(O)C(Cc2ccccc2)NC1=O` (configuration not stated), the T/C [15] was 98 % of control, the T/C [16] was 102 % of control and the T/C [17] was 102 % of control.

With `CCCCCCCC(=O)N1C(=O)CCC1C(=O)O` (configuration not stated) the T/C [15] was 100 % of control, the T/C [16] was 100 % of control and the T/C [17] was 104 % of control.

For `C=Cc1ccc(NC(=O)CCn2cnc3c(N)ncnc32)cc1`, the T/C [6] was 100 % of control, the T/C [7] was 102 % of control and the T/C [8] was 98 % of control. For the same compound, the T/C (endpoint: mean survival time, dose: 100.0 mg/kg/injection, schedule: Q01DX005 (ip), vehicle: distilled water + Tween-80) was 98 % of control and the T/C [9] was 98 % of control.

`C=CCN(CC=C)CC=C` was tested, and the T/C (endpoint: mean survival time, dose: 100.0 mg/kg/injection, schedule: Q04DX003 (ip), vehicle: saline) was 95 % of control, the T/C (endpoint: mean survival time, dose: 200.0 mg/kg/injection, schedule: Q04DX003 (ip), vehicle: saline) was 97 % of control and the T/C (endpoint: mean survival time, dose: 400.0 mg/kg/injection, schedule: Q04DX003 (ip), vehicle: saline) was 93 % of control.

In the case of `CCOc1ccncc1[N+](=O)[O-]`, the T/C (endpoint: mean survival time, dose: 100.0 mg/kg/injection, schedule: Q01DX009 (ip), vehicle: saline sonified) is reported as 96 % of control, the T/C (endpoint: mean survival time, dose: 100.0 mg/kg/injection, schedule: Q04DX003 (ip), vehicle: saline sonified) is reported as 95 % of control and the T/C (endpoint: mean survival time, dose: 200.0 mg/kg/injection, schedule: Q04DX003 (ip), vehicle: saline sonified) is reported as 95 % of control. The T/C (endpoint: mean survival time, dose: 400.0 mg/kg/injection, schedule: Q04DX003 (ip), vehicle: saline sonified) was 86 % of control.

`CC1CN1CC(O)C(O)CN1CC1C` (configuration not stated) was tested, and the T/C (endpoint: mean survival time, dose: 2.5 mg/kg/injection, schedule: Q01DX009 (ip), vehicle: saline) was 115 % of control.

In the case of `O=CC(O)CO` (configuration not stated), the T/C (endpoint: median survival time, dose: 129.6 mg/kg/injection, schedule: Q ##X015 (sc), vehicle: saline) is reported as 109 % of control, the T/C (endpoint: median survival time, dose: 129.6 mg/kg/injection, schedule: Q## X015 (sc), vehicle: saline) is reported as 112 % of control and the T/C (endpoint: median survival time, dose: 216.0 mg/kg/injection, schedule: Q ##X015 (sc), vehicle: saline) is reported as 108 % of control. The T/C (endpoint: median survival time, dose: 216.0 mg/kg/injection, schedule: Q## X015 (sc), vehicle: saline) was 112 % of control, the T/C (endpoint: median survival time, dose: 360.0 mg/kg/injection, schedule: Q ##X015 (sc), vehicle: saline) was 119 % of control and the T/C (endpoint: median survival time, dose: 360.0 mg/kg/injection, schedule: Q## X015 (sc), vehicle: saline) was 118 % of control. The T/C (endpoint: median survival time, dose: 600.0 mg/kg/injection, schedule: Q ##X015 (sc), vehicle: saline) was 110 % of control and the T/C (endpoint: median survival time, dose: 600.0 mg/kg/injection, schedule: Q## X015 (sc), vehicle: saline) was 112 % of control.

With `c1ccc2c(c1)[nH]c1ccncc12` the T/C [1] was 98 % of control, the T/C [2] was 90 % of control and the T/C [3] was 87 % of control.

`CC12CCC3C4CCC(=O)C(CCC(=O)O)=C4CCC3(CO1)C2` (configuration not stated) was tested, and the T/C [10] was 102 % of control, the T/C [11] was 95 % of control and the T/C [12] was 94 % of control.

`O=c1c2nc(-c3ccccc3)oc2ncn1C1OC(CO)C(O)C1O` (configuration not stated) was tested, and the T/C (endpoint: mean survival time, dose: 100.0 mg/kg/injection, schedule: Q01DX005 (ip), vehicle: saline) was 100 % of control and the T/C (endpoint: mean survival time, dose: 200.0 mg/kg/injection, schedule: Q01DX005 (ip), vehicle: saline) was 98 % of control.

For `Cc1ccc([N+](=O)[O-])cc1NC(=O)NNC(=O)CNC(=O)Nc1ccc(F)cc1`, the T/C [4] was 87 % of control and the T/C [5] was 92 % of control.

`COc1ccc(C=Nc2ccc3c(c2)OCO3)cc1Br` was tested, and the T/C [1] was 98 % of control, the T/C [2] was 97 % of control and the T/C [3] was 103 % of control.

With `CC(C)CC(NC(=O)CN)C(=O)O` (configuration not stated) the T/C (endpoint: mean survival time, dose: 100.0 mg/kg/injection, schedule: Q04DX002 (ip), vehicle: saline) was 93 % of control, the T/C (endpoint: mean survival time, dose: 200.0 mg/kg/injection, schedule: Q04DX002 (ip), vehicle: saline) was 96 % of control and the T/C (endpoint: mean survival time, dose: 400.0 mg/kg/injection, schedule: Q04DX002 (ip), vehicle: saline) was 107 % of control.

For `Brc1sc(Br)c(Br)c1Br`, the T/C [10] was 109 % of control, the T/C [3] was 100 % of control and the T/C [11] was 95 % of control. For the same compound, the T/C [4] was 101 % of control, the T/C [12] was 102 % of control and the T/C [5] was 101 % of control.

`COC(=O)C1CN=NC1C(=O)OC` (configuration not stated) was tested, and the T/C [3] was 95 % of control, the T/C [4] was 95 % of control and the T/C [5] was 91 % of control.

With `O=CN(O)CC(=O)O.[Cu]` the T/C (endpoint: mean survival time, dose: 3.12 mg/kg/injection, schedule: Q01DX009 (ip), vehicle: acetone) was 95 % of control, the T/C (endpoint: mean survival time, dose: 6.25 mg/kg/injection, schedule: Q01DX009 (ip), vehicle: acetone) was 101 % of control and the T/C (endpoint: mean survival time, dose: 12.5 mg/kg/injection, schedule: Q04DX003 (ip), vehicle: saline) was 100 % of control.

`O=C(CCl)Nc1ccc([N+](=O)[O-])cc1` was tested, and the T/C [14] was 87 % of control.
